# Source: US20160282364A1, “ASSAY FOR INSULIN-DEGRADING ENZYME (IDE) INHIBITORS” (PRESIDENT AND FELLOWS OF HARVARD COLLEGE, priority 2013, published 2016)
# Key:
# Assay type in all cases: in vivo, mouse
# [1] = tested on: DIO mice; assay: Plasma hormone measurements and liver RT-PCR post-IPGTT
# Experimental: (§1) Trunk blood was obtained for plasma hormone measurements using the Multiplexed Mouse Metabolic Hormone panel (Milliplex, EMD Millipore) on a Luminex FlexMap 3D instrument. Gastric emptying was measured by dissection of stomachs 30 min after an oral glucose bolus (3.0 g/kg, 10 mL/kg) in sterile saline containing 0.1 mg/mL phenol red.
# Total RNA was isolated from liver samples (˜100 mg) using TRIzol (Invitrogen) and purified using an RNeasy® kit (Qiagen) and on-column DNAse treatment (Qiagen). Reverse transcription was performed with oligo(dT) primers using SuperScript III (Life Technologies). RT-PCR was performed with two primer pairs per target normalized against tubulin and beta-actin transcripts (ΔΔCT method).
# Blood collection and plasma hormone measurements. Blood was collected in EDTA-coated tubes (BD Microtainer®) from trunk bleeding (˜500 μL) after CO2-euthanasia for all hormone assays. The plasma was immediately separated from red blood cells by centrifugation 10 min at 1800 g, aliquoted, frozen over dry ice and stored at −80° C. […] Values are reported as mean±S.E.M. Statistics were performed using a two-tail Student's t-test, and significance levels shown in the figures are *p<0.05 versus vehicle control group or **p<0.01 versus vehicle control group.
# RT-PCR analysis of liver gluconeogenesis markers phosphoenolpyruvate carboxykinase (PEPCK) and glucose-6-phosphatase (G6Pase). Total RNA was isolated from liver samples (˜100 mg) using TRIzol® reagent (Invitrogen, 1 mL/100 mg sample), followed by spin-column purification (RNeasy® kit, Qiagen) and on-column DNAse treatment (Qiagen) according to the manufacturer's instructions. RNA concentrations were determined by UV spectrophotometry (NanoDrop). One microgram of total RNA was used for reverse transcription with oligo(dT) primers (SuperScript® III First-Strand Synthesis SuperMix, Life Technologies) according to the manufacturer's instructions. Quantitative PCR reactions included 1 μL of cDNA diluted 1:100, 0.4 μM primers, 2× SYBR Green PCR Master Mix (Invitrogen) in 25 μL total volume, and were read out by a CFX96TM Real-Time PCR Detection System (BioRad). Transcript levels were determined using two known primer pairs^18,19 for each gene of interest (Table 6), which were normalized against tubulin and beta-actin transcripts (ΔΔCT method), and expressed relative to the lowest sample. Duplicate control assays without reverse transcriptase treatment were run for each RNA preparation and primer set used. Statistics were performed using a two-tail Student's t-test, and significance levels shown in the figures are *p<0.05 versus vehicle control group or **p<0.01 versus vehicle control group.
# [2] = tested on: Wild-type mice; assay: Gastric emptying measurements; conditions: 30 minutes post-gavage, vs vehicle and bisepi-6bK controls
# Experimental: as §1
# Gastric emptying measurements. Mice were fasted 14 h (8 pm to 10 am). Inhibitor or vehicle alone was injected i.p. as previously described, followed 30 min later by an oral glucose bolus (3.0 g/kg, 10 mL/kg) in sterile saline containing 0.1 mg/mL phenol red. At 30 min, the stomach was promptly dissected after CO2-euthanasia and stored on ice. The stomach contents were extracted into 2.5 mL EtOH (95%) by homogenization for 1 min using a probe sonicator. Tissue debris were decanted by centrifugation at 4000 g, followed by clearing at 15000 g for 15 min. The supernatant (1 mL) was mixed with 0.5 mL of aqueous NaOH (20 mM), and incubated at −20° C. for 1 h. The solution was centrifuged at 15,000 g for 15 min, and absorbance was determined at 565 nm. The spectrophotometer was blanked with the stomach contents of a mouse treated with colorless glucose solution. The absorbance was adjusted to the amount of glucose solution dosed to each mouse. Values are reported as mean±S.E.M relative to the original phenol red glucose solution. […]
# [3] = tested on: lean mice; assay: Basal blood glucose and hormone levels without nutrient challenge; conditions: 80 mg/kg, no glucose challenge, vs controls
# Experimental: Glucose tolerance tests GTT and blood glucose measurements. Prior to a glucose challenge, the animals were fasted for 14 h (8 pm to 10 am, during the dark cycle) while individually housed in a clean cage with inedible wood-chip as a floor substrate, cotton bedding and a red plastic hut. Inhibitor, vehicle or control compounds were administered by a single intraperitoneal (i.p.) injection 30 min prior to the glucose challenge. Dextrose was formulated in sterile saline (3 g in 10 mL total), and the dose was adjusted by fasted body weight. For oGTT, 3.0 g/kg dextrose was administered by gavage at a dose of 10 mL/kg, and for ipGTT, 1.5 g/kg dextrose injected at a dose of 5 mL/kg. Blood glucose was measured using AccuCheck® meters (Aviva) from blood droplets obtained from a small nick at the tip of the tail, at timepoints −45, 0, 15, 30, 45, 60, 90 and 120 min with reference to the time of glucose injection. The area of the blood glucose response profile curve corresponding to each animal was calculated by the trapezoid method^17, using as reference each individual baseline blood glucose measurement prior to glucose administration (t=0). […] Values are reported as mean±S.E.M. Statistics were performed using a two-tail Student's t-test, and significance levels shown in the figures are *p<0.05 versus vehicle control group or **p<0.01 versus vehicle control group. […]
# [4] = DIO liver, 135 min post-IPGTT, vs vehicle
# [5] = DIO mice, 20 minutes post-glucose injection, vs vehicle
compound,measurement,setting,value
NCCCC[C@@H]1NC(=O)/C=C/C(=O)N[C@H](C(N)=O)CCCCNC(=O)[C@@H](Cc2ccc(C(=O)c3ccccc3)cc2)NC(=O)[C@H](CC2CCCCC2)NC1=O [Compound 6bK],higher glucose-6-phosphatease (G6Pase) transcript levels,[1]; [4],50%
same,lower phosphoenolpyruvate carboxykinase (PEPCK) transcript levels,[1]; [4],30%
same,liver G6Pase expression,"[1]; DIO mice post-IPGTT, vs control",elevated
same,plasma amylin levels,[1]; [5],elevated
same,plasma glucagon levels,[1]; [5],unchanged
same,plasma insulin levels,[1]; [5],elevated
same,plasma glucagon levels,"[1]; DIO mice, 130 min post-injection, hyperglycemic rebound",above 200 pg/mL
same,slower gastric emptying of a labeled glucose solution,[2],2 fold
same,basal blood glucose or hormone levels,[3],did not significantly alter
